Results on four molecules are retold here after paper PMC3282081, “A Modular Strategy to Prepare Multivalent Inhibitors of Prostate-Specific Membrane Antigen (PSMA)” (Oncotarget, 2011).

pKi: −log10 of the molar value. Where “and” joins values, the source holds several entries; their conditions need not be identical. Equal values may be shown once. Read-outs that look alike come from different tables or passages of the source.

As a reminder, the pKi is the negative decadic logarithm of the Ki, by convention in mol/L.

In test [1] the target is T1, PSMA (Homo sapiens, UniProt Q04609).
T1 construct: endogenous in cells; host or cells: LNCaP cell lysate
As to the kind of experiment: fluorescence-based PSMA inhibition assay (NAAG hydrolysis, Amplex Red). Conditions: for pKi: LNCaP cell lysates, 4 μM NAAG, Cheng-Prusoff conversion; for increase in binding affinity (Ki) compared to monovalent 1: relative to compound 1. It counts as biochemical. The procedure: PSMA inhibition constant (Ki) values for 1 - 3 were determined using a fluorescence-based PSMA inhibition assay. […] Compound 6 was radiolabeled with ^99mTc and its biological properties were tested in vivo [34].
The PSMA inhibitory activities of 1 - 3 and [^113/115In]3 were determined using a fluorescence-based assay according to a previously reported procedure. Briefly, lysates of LNCaP cell extracts (25 μL) were incubated with the inhibitor (12.5 μL) in the presence of 4 μM NAAG (12.5 μL) for 120 min. The amount of glutamate released upon hydrolysis of NAAG was measured by incubating with a working solution (50 μL) of the Amplex Red Glutamic Acid Kit (Life Technologies, Grand Island, NY) for 60 min. Fluorescence was measured with a VICTOR3V multilabel plate reader (Perkin Elmer Inc., Waltham, MA) with excitation at 530 nm and emission at 560 nm. […] Assays were performed in triplicate. Enzyme inhibitory constants (Ki values) were generated using the Cheng-Prusoff conversion. Data analysis was performed using GraphPad Prism version 4.00 for Windows (GraphPad Software, San Diego, CA).

Test [2] has as its target T1, PSMA. More on the design: method as in earlier work. Conditions: separate previous experiment; cited from earlier work.

T1 sequence (Q04609 whole entry): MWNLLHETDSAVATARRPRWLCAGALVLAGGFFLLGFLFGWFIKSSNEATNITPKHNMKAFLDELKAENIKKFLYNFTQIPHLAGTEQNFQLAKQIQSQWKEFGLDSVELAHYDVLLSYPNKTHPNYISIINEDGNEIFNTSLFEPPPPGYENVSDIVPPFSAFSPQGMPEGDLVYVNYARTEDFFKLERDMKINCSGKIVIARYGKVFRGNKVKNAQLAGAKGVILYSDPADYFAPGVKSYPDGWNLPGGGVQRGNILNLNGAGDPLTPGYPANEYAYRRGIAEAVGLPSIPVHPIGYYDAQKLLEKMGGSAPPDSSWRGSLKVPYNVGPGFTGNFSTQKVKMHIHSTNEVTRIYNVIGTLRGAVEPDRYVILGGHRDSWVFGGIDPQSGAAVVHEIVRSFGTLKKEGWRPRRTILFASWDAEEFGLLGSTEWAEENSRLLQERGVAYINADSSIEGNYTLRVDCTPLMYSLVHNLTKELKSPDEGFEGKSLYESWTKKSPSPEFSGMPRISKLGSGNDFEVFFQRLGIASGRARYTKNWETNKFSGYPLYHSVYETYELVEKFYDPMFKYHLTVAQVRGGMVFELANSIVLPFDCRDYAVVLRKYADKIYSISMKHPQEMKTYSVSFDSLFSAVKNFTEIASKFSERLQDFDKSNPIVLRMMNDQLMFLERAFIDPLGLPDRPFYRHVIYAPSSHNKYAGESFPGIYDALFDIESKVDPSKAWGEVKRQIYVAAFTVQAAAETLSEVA

Consider `[N-]=[N+]=NCCCCC(NC(=O)CCCCCCC(=O)NCCCC[C@H](NC(=O)N[C@@H](CCC(=O)O)C(=O)O)C(=O)O)C(=O)O` (stereo partly drawn) [Compound 1, (3S,7S)-26-Azido-5,13,20-trioxo-4,6,12,21-tetraazahexacosane-1,3,7,22-tetracarboxylic acid], for which the pKi on PSMA [1] is 9.05 and 9.04. For the molecule `NCCCCC(NC(=O)C(CCCCNC(=O)c1cn(CCCCC(NC(=O)CCCCCCC(=O)NCCCC[C@H](NC(=O)N[C@@H](CCC(=O)O)C(=O)O)C(=O)O)C(=O)O)nn1)NC(=O)c1cn(CCCCC(NC(=O)CCCCCCC(=O)NCCCC[C@H](NC(=O)N[C@@H](CCC(=O)O)C(=O)O)C(=O)O)C(=O)O)nn1)C(=O)O` (stereo partly drawn) [Compound 2], at PSMA [1], the pKi is 10.00; the “increase in binding affinity (Ki) compared to monovalent 1” value is 5 fold and ~ 5 fold. `O=C(O)CC[C@H](NC(=O)N[C@@H](CCCCNC(=O)CCCCCCC(=O)NC(CCCCn1cc(C(=O)NCCCCC(NC(=O)c2cn(CCCCC(NC(=O)CCCCCCC(=O)NCCCC[C@H](NC(=O)N[C@@H](CCC(=O)O)C(=O)O)C(=O)O)C(=O)O)nn2)C(=O)NC(CCCCNC(=O)CN2CCN(CC(=O)O)CCN(CC(=O)O)CCN(CC(=O)O)CC2)C(=O)O)nn1)C(=O)O)C(=O)O)C(=O)O` (stereo partly drawn) [Compound 3]: at PSMA [1], the negative-log Ki (pKi) is 10.10; the “increase in binding affinity (Ki) compared to monovalent 1” value was 11 fold and ~ 11 fold. Consider `NC(Cc1cn(CCCCC(NC(=O)CCCCCCC(=O)NCCCC[C@H](NC(=O)N[C@@H](CCC(=O)O)C(=O)O)C(=O)O)C(=O)O)nn1)C(=O)O` (stereo partly drawn) [Compound 6], for which, on PSMA [2], the pKi is 9.04.
